pEC50, pIC50: −log10 of the molar value.
How the values were obtained:
TNF = test: PBMC assay: TNF cytokine level after LPS stimulation; assay type: cell-based; details: human PBMCs, 100 ng/ml LPS for 6 hrs, MSD, read-out: TNFα EC50
Description: (§1) Peripheral venous blood was collected from healthy individuals and human peripheral blood mononuclear cells (PBMCs) were isolated from blood by Ficoll-Histopaque (Sigma-Aldrich, A0561) density gradient centrifugation. After isolation, PBMCs were stored in liquid nitrogen for later use. Upon thawing, PBMC cell viability was determined in growth medium (RPMI media supplemented with 10% fetal bovine serum, 1% Pen-Strep and 1% L-glutamine). […] PBMCs were added at a density of 7.5×10^4 cells per well and incubated for 30 min in a 5% CO2 incubator at 37° C. LPS stimulation was performed by addition of 100 ng/ml LPS (final concentration, Invivogen, tlrl-smlps) for 6 hrs followed by collection of cellular supernatant and the analysis of IL-1β (μM) and TNF cytokines levels (μM) via MSD technology according to manufacturers' guidelines (MSD, K151A0H).

[1] = system: NLRP3 inflammasome pathway (IL-1β); test: PBMC assay: IL-1β release after LPS stimulation; assay type: cell-based; details: human PBMCs, 100 ng/ml LPS for 6 hrs, MSD
Description: The activity of a compound according to the present invention can be assessed by in vitro methods.
as §1

## CCn1nc(CC(=O)N[C@H]2C[C@@](C)(O)C2)c(=O)c2ccc(Br)cc21 [F-5]
other
  melting point: 203.3 °C
TNF
  pEC50: < 4.70
[1]
  pIC50: 6.60

## CCn1nc(CC(=O)Nc2ccc3nncn3c2)c(=O)c2ccc(Br)cc21 [F-6]
other
  melting point: 294.3 °C
TNF
  pEC50: < 4.70
[1]
  pIC50: 6.99

## CC(C)n1nc(CC(=O)N[C@H]2C[C@@H](C(C)(C)O)C2)c(=O)c2ccc(C(F)(F)F)cc21 [F-10]
other
  melting point: 181 °C
TNF
  pEC50: < 4.70
[1]
  pIC50: 4.94

## CC(C)n1nc(CC(=O)Nc2ccc3cncn3c2)c(=O)c2ccc(C(F)(F)F)cc21 [F-15]
other
  melting point: 152.7 °C
TNF
  pEC50: 4.96
[1]
  pIC50: 6.62

## CC(C)n1nc(CC(=O)Nc2ccn3cnnc3c2)c(=O)c2ccc(C(F)(F)F)cc21 [F-17]
other
  melting point: 212.3 °C
TNF
  pEC50: < 4.70
[1]
  pIC50: 5.27

## CC(C)n1nc(CC(=O)Nc2ccc(=O)n(C)n2)c(=O)c2ccc(C(F)(F)F)cc21 [F-18]
other
  melting point: 258.8 °C
TNF
  pEC50: < 4.70
[1]
  pIC50: 6.06

## CC(C)n1nc(CC(=O)Nc2ccc3c(c2)[nH]c(=O)n3C)c(=O)c2ccc(C(F)(F)F)cc21 [F-19]
other
  melting point: 241.6 °C
TNF
  pEC50: 5.08
[1]
  pIC50: 7.04

## CC(C)n1nc(CC(=O)Nc2ccc3nncn3c2)c(=O)c2ccc(C(F)(F)F)cc21 [F-20]
other
  melting point: 291.3 °C
TNF
  pEC50: < 4.70
[1]
  pIC50: 6.75

## CC(C)n1nc(CC(=O)N[C@H]2C[C@@](C)(O)C2)c(=O)c2ccc(C(F)(F)F)cc21 [F-21]
other
  melting point: 200.9 °C
TNF
  pEC50: < 4.70
[1]
  pIC50: 6.08

## CC(C)n1nc(CC(=O)Nc2ccncn2)c(=O)c2ccc(C(F)(F)F)cc21 [F-22]
other
  melting point: 178.3 °C
TNF
  pEC50: 4.91
[1]
  pIC50: 6.33

## CC(C)n1nc(CC(=O)Nc2ccc3ncnn3c2)c(=O)c2ccc(C(F)(F)F)cc21 [F-24]
other
  melting point: 206.8 °C
TNF
  pEC50: < 4.70
[1]
  pIC50: 6.09

## CCn1nc(CC(=O)N[C@H]2C[C@@](C)(O)C2)c(=O)c2ccc(Cl)cc21 [F-25]
other
  melting point: 191.5 °C
TNF
  pEC50: < 4.70
[1]
  pIC50: 5.67

## CC(C)c1ccc2c(=O)c(CC(=O)N[C@H]3C[C@@](C)(O)C3)nn(C(C)C)c2c1 [F-26]
other
  melting point: 201.5 °C
TNF
  pEC50: < 4.70
[1]
  pIC50: 5.97

## CCn1nc(CC(=O)Nc2ccc3nncn3c2)c(=O)c2ccc(Cl)cc21 [F-27]
other
  melting point: 254.3 °C
TNF
  pEC50: < 4.70
[1]
  pIC50: 6.21

## CC(C)n1nc(CC(=O)N[C@H]2C[C@@](C)(O)C2)c(=O)c2ccc(Cl)cc21 [F-28]
other
  melting point: 194.9 °C
TNF
  pEC50: < 4.70
[1]
  pIC50: 6.64

## CC(C)n1nc(CC(=O)Nc2ccc3nncn3c2)c(=O)c2ccc(Cl)cc21 [F-29]
other
  melting point: 292 °C
TNF
  pEC50: < 4.70
[1]
  pIC50: 6.21

## CC(C)n1nc(CC(=O)Nc2ccc3nncn3n2)c(=O)c2ccc(Cl)cc21 [F-30]
other
  melting point: 241.6 °C
TNF
  pEC50: 4.79
[1]
  pIC50: 6.65

## CC(C)c1ccc2c(=O)c(CC(=O)Nc3ccc4nncn4c3)nn(C(C)C)c2c1 [F-31]
other
  melting point: 181.4 °C
TNF
  pEC50: 4.94
[1]
  pIC50: 6.66

## CC(C)c1ccc2c(=O)c(CC(=O)Nc3ccc4nncn4n3)nn(C(C)C)c2c1 [F-32]
other
  melting point: 121.3 °C
TNF
  pEC50: 5.16
[1]
  pIC50: 6.96

## CC(C)n1nc(CC(=O)Nc2ccc(=O)n(C)n2)c(=O)c2ccc(Br)cc21 [F-33]
other
  melting point: 221.9 °C
TNF
  pEC50: < 4.70
[1]
  pIC50: 6.36

## CCn1nc(CC(=O)Nc2ccc3nncn3n2)c(=O)c2ccc(Cl)cc21 [F-34]
other
  melting point: 206.5 °C
TNF
  pEC50: < 4.70
[1]
  pIC50: 6.31

## CC(C)n1nc(CC(=O)Nc2ccc3c(C#N)ncn3c2)c(=O)c2ccc(C(F)(F)F)cc21 [F-36]
other
  melting point: 259.8 °C
TNF
  pEC50: < 4.70
[1]
  pIC50: 6.00

## CC(C)n1nc(CC(=O)Nc2ccc3nnc(C(F)F)n3c2)c(=O)c2ccc(C(F)(F)F)cc21 [F-39]
other
  melting point: 226.8 °C
TNF
  pEC50: 4.76
[1]
  pIC50: 5.68

## Cc1nnc2cc(NC(=O)Cc3nn(C(C)C)c4cc(C(F)(F)F)ccc4c3=O)ccn12 [F-41]
other
  melting point: 216.3 °C
TNF
  pEC50: < 4.70
[1]
  pIC50: 5.20

## CC(C)n1nc(CC(=O)Nc2ccc3nncn3c2)c(=O)c2ccc(C3CCC3)cc21 [F-42]
other
  melting point: 179.8 °C
TNF
  pEC50: 4.75
[1]
  pIC50: 5.11

## CC(C)n1nc(CC(=O)NC2CCc3ncn(C)c3C2)c(=O)c2ccc(C(F)(F)F)cc21 (stereo not drawn) [F-43]
other
  melting point: 221 °C
TNF
  pEC50: < 4.70
[1]
  pIC50: 5.29

## CCn1nc(CC(=O)Nc2ccc3nncn3c2)c(=O)c2ccc(C3CCC3)cc21 [F-46]
other
  melting point: 113.1 °C
TNF
  pEC50: < 4.70
[1]
  pIC50: 5.34

## CC(C)n1nc(CC(=O)Nc2cc(Cl)c(=O)n(C(F)F)c2)c(=O)c2ccc(C(F)(F)F)cc21 [F-47]
other
  melting point: 233 °C
TNF
  pEC50: < 4.70
[1]
  pIC50: 5.44

## CCn1nc(CC(=O)Nc2ncc3ncn(C)c3n2)c(=O)c2ccc(C(F)(F)F)cc21 [F-48]
other
  melting point: 271 °C
TNF
  pEC50: < 4.70
[1]
  pIC50: 5.49

## CCC(C)n1nc(CC(=O)Nc2ccc3nncn3c2)c(=O)c2ccc(C(F)(F)F)cc21 (stereo not drawn) [F-49]
other
  melting point: 156.4 °C
TNF
  pEC50: < 4.70
[1]
  pIC50: 5.50

## CC(C)n1nc(CC(=O)Nc2ncc3ncn(C)c3n2)c(=O)c2ccc(C(F)(F)F)cc21 [F-50]
other
  melting point: 281.4 °C
TNF
  pEC50: < 4.70
[1]
  pIC50: 5.53

## Cc1ncc2n1CCC(NC(=O)Cc1nn(C(C)C)c3cc(C(F)(F)F)ccc3c1=O)C2 (stereo not drawn) [F-51]
other
  melting point: 233.4 °C
TNF
  pEC50: < 4.70
[1]
  pIC50: 5.61

## Cc1ccn2nc(NC(=O)Cc3nn(C(C)C)c4cc(C(F)(F)F)ccc4c3=O)nc2c1 [F-122]
TNF
  pEC50: < 4.70
[1]
  pIC50: 6.45

## CC(C)n1nc(CC(=O)Nc2cn3cccnc3n2)c(=O)c2ccc(C(F)(F)F)cc21 [F-123]
TNF
  pEC50: < 4.70
[1]
  pIC50: 5.71

## CC(C)n1nc(CC(=O)Nc2nc3cnccn3n2)c(=O)c2ccc(C(F)(F)F)cc21 [F-124]
TNF
  pEC50: < 4.70
[1]
  pIC50: 6.91

## CC(C)n1nc(CC(=O)Nc2cc3ncccn3n2)c(=O)c2ccc(C(F)(F)F)cc21 [F-125]
TNF
  pEC50: < 4.70
[1]
  pIC50: 5.59

## CC(C)n1nc(CC(=O)Nc2cn3ccncc3n2)c(=O)c2ccc(C(F)(F)F)cc21 [F-126]
TNF
  pEC50: < 4.70
[1]
  pIC50: 5.25

## CC(C)n1nc(CC(=O)Nc2nc3cccnc3o2)c(=O)c2ccc(C(F)(F)F)cc21 [F-127]
TNF
  pEC50: < 4.70
[1]
  pIC50: 5.36

## Cc1ccn2nc(NC(=O)Cc3nn(C(C)C)c4cc(C(F)(F)F)ccc4c3=O)nc2n1 [F-128]
TNF
  pEC50: < 4.70
[1]
  pIC50: 6.18

## CC(C)n1nc(CC(=O)Nc2nc3ncc(Br)cn3n2)c(=O)c2ccc(C(F)(F)F)cc21 [F-129]
TNF
  pEC50: < 4.70
[1]
  pIC50: 5.49

## CC(C)n1nc(CC(=O)Nc2cc(F)[nH]c(=O)c2)c(=O)c2ccc(C(F)(F)F)cc21 [F-130, N-(6-fluoro-2-oxo-1,2-dihydropyridin-4-yl)-2-(1-isopropyl-4-oxo-7-(trifluoromethyl)-1,4-dihydrocinnolin-3-yl)acetamide]
TNF
  pEC50: 4.95
[1]
  pIC50: 6.07

## CC(C)n1nc(CC(=O)Nc2ccc3nc(C(F)(F)F)cn3c2)c(=O)c2ccc(C(F)(F)F)cc21 [F-131]
TNF
  pEC50: < 4.70
[1]
  pIC50: 6.18

## CC(C)n1nc(CC(=O)Nc2ccc3nncn3n2)c(=O)c2ccc(C3CC3)cc21 [F-133, N-([1,2,4]triazolo[4,3-b]pyridazine-6-yl)-2-(7-cyclopropyl-1-isopropyl-4-oxo-1,4-dihydrocinnolin-3-yl)acetamide]
TNF
  pEC50: 4.81
[1]
  pIC50: 6.80

## CC(C)n1nc(CC(=O)Nc2ccc3nncn3n2)c(=O)c2ccc(Br)cc21 [F-134]
TNF
  pEC50: < 4.70
[1]
  pIC50: 7.32

## Cc1nnc2ccc(NC(=O)Cc3nn(C(C)C)c4cc(C(F)(F)F)ccc4c3=O)nn12 [F-135]
TNF
  pEC50: < 4.70
[1]
  pIC50: 6.23

## O=C(Cc1nn(C2CC2)c2cc(C3CC3)ccc2c1=O)Nc1ccc2nncn2n1 [F-137]
TNF
  pEC50: 5.35
[1]
  pIC50: 6.55

## CC(C)n1nc(CC(=O)Nc2ccc3nccn3n2)c(=O)c2ccc(C(C)(F)F)cc21 [F-138]
TNF
  pEC50: 5.46
[1]
  pIC50: 6.62

## CC(C)c1ccc2c(=O)c(CC(=O)Nc3ccc4nncn4n3)nn(C3CC3)c2c1 [F-140]
TNF
  pEC50: 5.31
[1]
  pIC50: 6.84

## CCn1nc(CC(=O)Nc2ccc3nncn3n2)c(=O)c2ccc(C(C)C)cc21 [F-142]
TNF
  pEC50: ~4.89
[1]
  pIC50: 6.92

## CC(C)n1nc(CC(=O)Nc2ccc3nncn3n2)c(=O)c2ccc(C(F)(F)F)cc21 [F-143]
TNF
  pEC50: 5.12
[1]
  pIC50: 6.96

## O=C(Cc1nn(C2CC2)c2cc(Br)ccc2c1=O)Nc1ccc2nncn2n1 [F-144]
TNF
  pEC50: < 4.70
[1]
  pIC50: 7.11

## CC(C)n1nc(CC(=O)Nc2ccc3nncn3c2)c(=O)c2ccc(C(C)(F)F)cc21 [F-149, N-([1,2,4]triazolo[4,3-a]pyridin-6-yl)-2-(7-(1,1-difluoroethyl)-1-isopropyl-4-oxo-1,4-dihydrocinnolin-3-yl)acetamide]
TNF
  pEC50: < 4.70
[1]
  pIC50: 6.72

## CC(C)n1nc(NC(=O)Nc2ccc3nncn3c2)c(=O)c2ccc(C(F)(F)F)cc21 [F-150, 1-([1,2,4]triazolo[4,3-a]pyridin-6-yl)-3-(1-isopropyl-4-oxo-7-(trifluoromethyl)-1,4-dihydrocinnolin-3-yl)urea]
TNF
  pEC50: 4.77
[1]
  pIC50: 5.61
